The source of these data is BindingDB's records for doi:10.1016/j.bioorg.2012.08.003 (North-West University, 2012).

The IC50 is the concentration that gives 50% inhibition.

For test [1], the target named is T1, Amine oxidase [flavin-containing] A (Homo sapiens, UniProt P21397).
T1 sequence (P21397 whole entry): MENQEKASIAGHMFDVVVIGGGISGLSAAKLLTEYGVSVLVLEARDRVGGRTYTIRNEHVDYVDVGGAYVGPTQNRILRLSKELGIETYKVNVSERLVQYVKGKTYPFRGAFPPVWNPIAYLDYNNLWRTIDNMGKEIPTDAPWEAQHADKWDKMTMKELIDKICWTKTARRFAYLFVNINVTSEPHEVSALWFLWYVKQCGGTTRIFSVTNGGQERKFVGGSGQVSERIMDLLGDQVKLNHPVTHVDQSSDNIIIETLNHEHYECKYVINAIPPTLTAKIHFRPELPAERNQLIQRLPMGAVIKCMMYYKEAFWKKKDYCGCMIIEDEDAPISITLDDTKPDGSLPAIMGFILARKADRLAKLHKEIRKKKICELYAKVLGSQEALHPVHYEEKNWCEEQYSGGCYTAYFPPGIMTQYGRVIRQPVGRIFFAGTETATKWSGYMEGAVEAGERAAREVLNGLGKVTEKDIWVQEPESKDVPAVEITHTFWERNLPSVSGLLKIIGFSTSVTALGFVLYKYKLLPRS
The test is described as follows: Inhibition Assay. The settings on record: pH 7.4; 37 °C. The source says: (§1) Inhibition studies using recombinant human MAO-A and MAO-B that were obtained from commercial sources (Sigma-Aldrich).

Test [2] deals with T2, Amine oxidase [flavin-containing] B (Homo sapiens, UniProt P27338).
T2 sequence (P27338 whole entry): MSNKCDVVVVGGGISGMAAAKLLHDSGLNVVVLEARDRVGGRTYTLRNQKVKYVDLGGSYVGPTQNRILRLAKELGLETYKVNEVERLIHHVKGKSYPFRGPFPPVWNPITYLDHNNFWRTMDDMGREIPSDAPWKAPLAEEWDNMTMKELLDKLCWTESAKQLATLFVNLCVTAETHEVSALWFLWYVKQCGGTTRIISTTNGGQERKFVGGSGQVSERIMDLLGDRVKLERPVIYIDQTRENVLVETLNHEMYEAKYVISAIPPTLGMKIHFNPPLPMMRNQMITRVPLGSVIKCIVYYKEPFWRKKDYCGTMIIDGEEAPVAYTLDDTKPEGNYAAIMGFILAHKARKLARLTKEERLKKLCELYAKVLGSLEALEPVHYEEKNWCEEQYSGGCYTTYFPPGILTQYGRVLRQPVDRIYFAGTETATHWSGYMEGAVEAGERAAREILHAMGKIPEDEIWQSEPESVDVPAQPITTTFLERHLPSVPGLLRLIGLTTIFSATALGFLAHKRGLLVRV
Nature of the test: Inhibition Assay. The note with it: pH 7.4; 37 °C.
Source text: as §1

As for `N#Cc1cccc(COc2ccc3c(=O)ccoc3c2)c1` [C7-substituted chromone derivative, 3l], the IC50 in test [1] came to 784 nM; in test [2], 370 nM.

For the compound `N#Cc1ccc(COc2ccc3c(=O)ccoc3c2)cc1` [C7-substituted chromone derivative, 3m], the IC50 was 1570 nM in test [1] and 117 nM in test [2].

As for `O=c1ccoc2cc(OCc3cccc(Br)c3)ccc12` [C7-substituted chromone derivative, 3f], the IC50 is 1730 nM in test [1] and 14 nM in test [2].

Consider `O=c1ccoc2cc(OCCc3ccc(Br)cc3)ccc12` [C7-substituted chromone derivative, 3o], for which the figures for the 50% inhibitory concentration (IC50) in test [1] and in test [2] were 718 nM and 317 nM, respectively.

On to `O=c1ccoc2cc(OCc3ccc(Br)cc3)ccc12` [C7-substituted chromone derivative, 3g], for which the half-maximal inhibitory concentration (IC50) worked out at 592 nM in test [1] and 18 nM in test [2].

In turn, `O=c1ccoc2cc(OCc3ccc(F)cc3)ccc12` [C7-substituted chromone derivative, 3i] yielded an IC50 in test [1] of 1170 nM.

Take `O=c1ccoc2cc(OCc3ccc(Cl)cc3)ccc12` [C7-substituted chromone derivative, 3e]: the IC50 in test [1] is 495 nM; in test [2] it was 29 nM.

Regarding `Cc1ccc(COc2ccc3c(=O)ccoc3c2)cc1` [C7-substituted chromone derivative, 3k], the values for the IC50 in test [1] and in test [2] were 7120 nM and 75 nM, respectively.

With `O=c1ccoc2cc(OCCc3ccccc3)ccc12` [C7-substituted chromone derivative, 3b], the IC50 was found to be 2190 nM in test [1] and 115 nM in test [2].

In the case of `Cc1cccc(COc2ccc3c(=O)ccoc3c2)c1` [C7-substituted chromone derivative, 3j], the half-inhibitory concentration (IC50) was 8030 nM in test [1] and 62 nM in test [2].

Compound `O=c1ccoc2cc(OCc3ccc(C(F)(F)F)cc3)ccc12` [C7-substituted chromone derivative, 3n] had a 50% inhibitory concentration (IC50) in test [1] of 1970 nM.

Turning to `O=c1ccoc2cc(OCc3cccc(F)c3)ccc12` [C7-substituted chromone derivative, 3h], the results for the IC50 in test [1] and in test [2] were 2100 nM and 44 nM, respectively.

As to `O=c1ccoc2cc(OCCCc3ccccc3)ccc12` [C7-substituted chromone derivative, 3c], the IC50 in test [1] turned out to be 3080 nM; in test [2] it was 121 nM.

For `O=c1ccoc2cc(OCc3cccc(Cl)c3)ccc12` [C7-substituted chromone derivative, 3d], the IC50 in test [1] was 1520 nM.

Turning to `O=c1ccoc2cc(OCc3ccccc3)ccc12` [C7-substituted chromone derivative, 3a], the IC50 in test [1] worked out at 5330 nM; in test [2], 85 nM.
